{"source": "patent US7563785B2", "about": "“Quetiapine analogs and methods of use thereof” (Hypnion, Inc., priority 2004, dated 2009)", "origin": "cited, not measured here", "molecular_target": "T1, human recombinant M1 expressed in CHO cells (Homo sapiens, UniProt P11229)", "T1 construct": "purchased PerkinElmer, Inc., Wellesley, Mass; host or cells: CHO cells", "T1 sequence (P11229 1-460)": "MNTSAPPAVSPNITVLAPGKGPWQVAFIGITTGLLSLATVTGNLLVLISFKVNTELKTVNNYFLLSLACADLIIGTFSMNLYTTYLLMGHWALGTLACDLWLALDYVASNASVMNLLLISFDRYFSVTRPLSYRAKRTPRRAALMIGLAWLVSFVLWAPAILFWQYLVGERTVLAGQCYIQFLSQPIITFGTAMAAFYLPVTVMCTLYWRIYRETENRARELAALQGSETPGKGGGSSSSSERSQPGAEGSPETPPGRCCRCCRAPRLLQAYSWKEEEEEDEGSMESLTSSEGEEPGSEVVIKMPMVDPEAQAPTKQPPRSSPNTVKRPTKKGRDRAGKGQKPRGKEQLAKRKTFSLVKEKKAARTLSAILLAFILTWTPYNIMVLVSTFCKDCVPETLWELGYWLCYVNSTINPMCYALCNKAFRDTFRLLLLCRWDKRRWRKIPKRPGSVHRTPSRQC", "details": "reference compounds; read-out: Ki of reference compounds in M1 binding assay"}
{"compound": "C[N+]1(C)CCC(OC(=O)C(c2ccccc2)c2ccccc2)CC1", "note": "[4-DAMP methiodide]", "values": [{"measurement": "Ki", "value": 0.27, "unit": "nM"}]}
